Laboratory results from ChEMBL document CHEMBL1129756, “Conformationally restricted TRH analogs: a probe for the pyroglutamate region” (J Med Chem, 1996).

Tests used:
[1] = molecular target: T1, Thyrotropin-releasing hormone receptor (Mus musculus, UniProt P21761); assay: Binding affinity against TRH-R receptor in AtT-20 mouse pituitary tumor cells
T1 sequence (P21761 whole entry): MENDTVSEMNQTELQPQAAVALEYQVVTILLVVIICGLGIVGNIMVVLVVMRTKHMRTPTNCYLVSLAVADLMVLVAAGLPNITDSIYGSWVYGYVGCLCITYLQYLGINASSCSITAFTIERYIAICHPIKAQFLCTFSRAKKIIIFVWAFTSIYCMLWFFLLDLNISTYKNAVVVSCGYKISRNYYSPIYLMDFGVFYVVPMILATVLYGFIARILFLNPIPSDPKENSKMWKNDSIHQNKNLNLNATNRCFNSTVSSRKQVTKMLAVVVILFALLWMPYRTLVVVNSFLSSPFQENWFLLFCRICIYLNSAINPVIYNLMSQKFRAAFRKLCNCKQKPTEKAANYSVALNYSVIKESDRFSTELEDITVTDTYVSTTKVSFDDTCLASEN

[2] = molecular target: T1, Thyrotropin-releasing hormone receptor; assay: Effective concentration required to activate TRH-R receptor in AtT-20 mouse pituitary tumor cells

SMILES	Ki [1]	EC50 [2]
Cn1cnc(C[C@H](NC(=O)[C@@H]2CCC(=O)N2)C(=O)N2CCC[C@H]2C(N)=O)c1	0.0012 µM	–
NC(=O)[C@@H]1CCCN1C(=O)[C@H](Cc1ccccc1)N1CC[C@]2(CCC(=O)N2)C1=O	4.4 µM	0.29 µM
NC(=O)[C@@H]1CCCN1C(=O)[C@H](Cc1cnc[nH]1)NC(=O)[C@@H]1CCC(=O)N1 [PROTIRELIN]	–	0.00068 µM
